This note sets out measurements from ChEMBL document CHEMBL1128874 (Bioorg Med Chem Lett, 1995).

A short description of this experiment: Antagonism of calmodulin dependent cAMP Phosphodiesterase. Type of experiment: functional.
What is called IC50 is the midpoint of a concentration-inhibition curve. `CC/C(=C(\c1ccc(I)cc1)c1ccc(OCCN2CCCC2)cc1)c1ccc(N)cc1` came in with an IC50 of 2600 nM.

Take `CC/C(=C(\c1ccc(I)cc1)c1ccc(OCCN2CCCC2)cc1)c1ccccc1` [IDOXIFENE]: half-maximal inhibition (IC50) was put at 1500 nM.

For `CC/C(=C(/c1ccc(I)cc1)c1ccc(OCCN2CCCC2)cc1)c1ccc(O)cc1`, the midpoint of inhibition, the IC50, lay at 2200 nM.

`CC/C(=C(\c1ccc(I)cc1)c1ccc(OCCN2CCCC2)cc1)c1ccc(O)cc1`: the half-inhibitory concentration (IC50) worked out at 1800 nM.

With `CC/C(=C(\c1ccc(I)cc1)c1ccc(OCCN2CCCC2)cc1)c1ccc(I)cc1`, half-maximal inhibition (IC50) required 5000 nM.
